Laboratory results published in patent publication US10894048B2, “Antitumor drug for intermittent administration of FGFR inhibitor” (priority 2013, dated 2021).

Key:
[1] = system: Human-derived gastric cancer OCUM-2MD3 cells; conditions: OCUM-2MD3, 72 h
[2] = target: purified recombinant human FGFR2 protein (Homo sapiens (Human), UniProt P21802); experiment: Inhibitory effect on FGFR2 kinase activity; format: biochemical; conditions: ATP 75 μM
Sequence of purified recombinant human FGFR2 protein (P21802 22-821): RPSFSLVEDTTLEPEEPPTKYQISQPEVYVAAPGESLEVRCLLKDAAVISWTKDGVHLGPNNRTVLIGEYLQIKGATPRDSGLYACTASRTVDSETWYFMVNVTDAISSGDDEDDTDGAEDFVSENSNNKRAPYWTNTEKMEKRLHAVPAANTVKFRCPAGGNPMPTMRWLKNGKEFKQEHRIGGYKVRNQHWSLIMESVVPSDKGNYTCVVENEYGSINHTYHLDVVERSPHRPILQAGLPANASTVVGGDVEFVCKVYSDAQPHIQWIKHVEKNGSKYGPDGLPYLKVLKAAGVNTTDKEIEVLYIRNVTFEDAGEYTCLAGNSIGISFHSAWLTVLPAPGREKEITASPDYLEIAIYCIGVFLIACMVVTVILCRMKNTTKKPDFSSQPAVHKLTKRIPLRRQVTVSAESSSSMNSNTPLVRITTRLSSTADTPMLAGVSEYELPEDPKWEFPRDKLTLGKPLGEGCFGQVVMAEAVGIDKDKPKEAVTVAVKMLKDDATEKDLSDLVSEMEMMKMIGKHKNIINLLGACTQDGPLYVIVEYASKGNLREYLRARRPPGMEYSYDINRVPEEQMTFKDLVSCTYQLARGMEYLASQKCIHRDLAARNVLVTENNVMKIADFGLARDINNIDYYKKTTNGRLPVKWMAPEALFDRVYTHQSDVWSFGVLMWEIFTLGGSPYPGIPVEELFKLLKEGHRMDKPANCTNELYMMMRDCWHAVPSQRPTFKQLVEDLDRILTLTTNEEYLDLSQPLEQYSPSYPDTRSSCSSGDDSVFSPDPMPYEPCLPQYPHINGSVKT

| GI50 [1] [µM] | IC50 [2] [µM] | Structure (SMILES) |
| --- | --- | --- |
| < 0.0046 |  | C=CC(=O)N1C[C@@H](n2cc(C#Cc3cc(OC)cc(OC)c3)c3c(N)ncnc32)C[C@H]1C(=O)OC [Ex. Compound 66, (2S,4S)-methyl 1-acryloyl-4-(4-amino-5-((3,5-dimethoxyphenyl)ethynyl)-7H-pyrrolo[2,3-d]pyrimidin-7-yl)pyrrolidine-2-carboxylate] |
|  | > 10 | CC(C)c1cc(C#Cc2nn([C@H]3CCN(C(=O)/C=C/CN(C)C)C3)c3ncnc(N)c23)cc(C(C)C)c1 [Ref. Ex. Compound 4, (S)-1-(3-(4-amino-3-((3,5-diisopropylphenyl)ethynyl)-1H-pyrazolo[3,4-d]pyrimidin-1-yl)pyrrolidin-1-yl)-4-(dimethylamino)but-2-en-1-one] |
